From US20240336654A1, “ANTIMICROBIAL PEPTIDOMIMETICS” (SPEXIS AG, priority 2021, published 2024)
Where a SMILES comes first, the peptide text is derived from it. Bridges are numbered along the chain shown (N, C = ends). [ ]: non-standard residue; d: D form. The star is where a group is joined. Val(Nα-amidino) = CC(C)[C@H](NC(=N)N)C(=O)*; dDab(iPr) = CC(C)NCC[C@@H](N)C(=O)O; Dab(iPr) = CC(C)NCC[C@H](N)C(=O)O; Hyp = O=C(O)[C@@H]1C[C@@H](O)CN1; Agb = N=C(N)NCC[C@H](N)C(=O)O; Pen = CC(C)(S)[C@H](N)C(=O)O; X1 = CC[C@H](NC(=N)N)C(=O)*; dDab = NCC[C@@H](N)C(=O)O; Orn = NCCC[C@H](N)C(=O)O; Dab = NCC[C@H](N)C(=O)O

Key:
Format in all cases: cell-based
[1] = test system: Escherichia coli ATCC 25922; settings: ATCC 25922
Procedure, shortened: (§1)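 CLSI broth microdilution, slightly modified: cation-adjusted Mueller-Hinton II broth with about 5×10^5 CFU/mL from a 0.5 McFarland suspension, and two-fold serial peptide dilutions with Polysorbate 80 at 0.002% final. MIC (μg/mL) was the lowest concentration with no visible growth after 18-20 hours at 35° C.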

[2] = test system: Escherichia coli MCR-1 Af 45; settings: MCR-1 Af 45
Procedure, shortened: as §1

[3] = test system: Klebsiella pneumoniae SSI3010; settings: SSI3010
Procedure, shortened: as §1

[4] = test system: human red blood cells (hRBC); settings: red cells of human, 1 h, 200 μg/mL
Procedure, shortened: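 Percent hemolysis derived from OD540 of supernatants relative to full lysis by 2.5% Triton X-100 (PBS baseline). Washed fresh human erythrocytes (20% v/v) were exposed to 200 μg/mL peptide for 1 h at 37 °C with shaking.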

| Structure (SMILES) | Escherichia coli ATCC 25922 MIC [1] | Escherichia coli MCR-1 Af45 MIC [2] | Klebsiella pneumoniae SSI3010 MIC [3] | Hemolysis at 0.2 g/L [4] |
| --- | --- | --- | --- | --- |
| CC[C@H](C)[C@H](NC(=O)[C@@H]1C[C@@H](O)CN1C(=O)[C@@H](NC(=N)N)C(C)C)C(=O)N[C@@H]1C(=O)N[C@@H](Cc2ccc(O)cc2)C(=O)N[C@@H](CCN)C(=O)N[C@@H](CC(N)=O)C(=O)N[C@@H](CCCNC(=N)N)C(=O)N[C@@H](CCN)C(=O)N[C@@H]([C@@H](C)O)C(=O)N[C@H](CCN)C(=O)N[C@@H](CCCCN)C(=O)N[C@@H](CO)C(=O)N[C@@H](CCN)C(=O)N[C@H](C(=O)N[C@@H](Cc2ccc(O)cc2)C(=O)O)CSSC1(C)C [Example 69, Gua-Val-Hyp-Ile-Pen-Tyr-Dab-Asn-Arg-Dab-Thr-^DDab-Lys-Ser-Dab-Cys-Tyr] ({Val(Nα-amidino)}-[Hyp]I[Pen]Y[Dab]NR[Dab]T[dDab]KS[Dab]CY-OH; disulfide 3-14) | 0.0625 µg/mL | 0.0625 µg/mL | 0.0625 µg/mL | <1% |
| CC[C@H](C)[C@H](NC(=O)[C@@H]1C[C@@H](O)CN1C(=O)[C@@H](NC(=N)N)C(C)C)C(=O)N[C@@H]1C(=O)N[C@@H](Cc2ccc(O)cc2)C(=O)N[C@@H](CO)C(=O)N[C@@H](CC(N)=O)C(=O)N[C@@H](CCCNC(=N)N)C(=O)N[C@@H](CCNC(C)C)C(=O)N[C@@H]([C@@H](C)O)C(=O)N[C@H](CCN)C(=O)N[C@@H](CCCCN)C(=O)N[C@@H](CCNC(C)C)C(=O)N[C@@H](CCN)C(=O)N[C@H](C(=O)N[C@@H](Cc2ccc(O)cc2)C(=O)O)CSSC1(C)C [Example 70, Gua-Val-Hyp-Ile-Pen-Tyr-Ser-Asn-Arg-Da b(iPr)-Thr-^DDab-Lys-Dab(iPr)-Dab-Cys-Tyr] ({Val(Nα-amidino)}-[Hyp]I[Pen]YSNR[Dab(iPr)]T[dDab]K[Dab(iPr)][Dab]CY-OH; disulfide 3-14) | 0.125 µg/mL | 0.0625 µg/mL | 0.25 µg/mL | <1% |
| CC[C@H](C)[C@H](NC(=O)[C@@H]1C[C@@H](O)CN1C(=O)[C@@H](NC(=N)N)C(C)C)C(=O)N[C@@H]1C(=O)N[C@@H](Cc2ccc(O)cc2)C(=O)N[C@@H](CO)C(=O)N[C@@H](CC(N)=O)C(=O)N[C@@H](CCCNC(=N)N)C(=O)N[C@@H](CCN)C(=O)N[C@@H]([C@@H](C)O)C(=O)N[C@H](CCNC(C)C)C(=O)N[C@@H](CCCCN)C(=O)N[C@@H](CCN)C(=O)N[C@@H](CCN)C(=O)N[C@H](C(=O)N[C@@H](Cc2ccc(O)cc2)C(=O)O)CSSC1(C)C [Example 71, Gua-Val-Hyp-Ile-Pen-Tyr-Ser-Asn-Arg-Dab-Thr-^DDab(iPr)-Lys-Dab-Dab-Cys-Tyr] ({Val(Nα-amidino)}-[Hyp]I[Pen]YSNR[Dab]T[dDab(iPr)]K[Dab][Dab]CY-OH; disulfide 3-14) | 0.0625 µg/mL | 0.0625 µg/mL | 0.125 µg/mL | <1% |
| CC[C@H](C)[C@H](NC(=O)[C@@H]1C[C@@H](O)CN1C(=O)[C@@H](NC(=N)N)C(C)C)C(=O)N[C@@H]1C(=O)N[C@@H](Cc2ccc(O)cc2)C(=O)N[C@@H](CCN)C(=O)N[C@@H](CC(N)=O)C(=O)N[C@@H](CCCNC(=N)N)C(=O)N[C@@H](CCN)C(=O)N[C@@H]([C@@H](C)O)C(=O)N[C@H](CCN)C(=O)N[C@@H](CCCCN)C(=O)N[C@@H]([C@@H](C)O)C(=O)N[C@@H](Cc2ccc(O)cc2)C(=O)N[C@H](C(=O)N[C@@H](Cc2ccc(O)cc2)C(=O)O)CSSC1(C)C [Example 72, Gua-Val-Hyp-Ile-Pen-Tyr-Dab-Asn-Arg-Dab-Thr-^DDab-Lys-Thr-Tyr-Cys-Tyr] ({Val(Nα-amidino)}-[Hyp]I[Pen]Y[Dab]NR[Dab]T[dDab]KTYCY-OH; disulfide 3-14) | 0.5 µg/mL | 0.5 µg/mL | 0.5 µg/mL | <1% |
| CC[C@H](C)[C@@H]1NC(=O)[C@H]([C@@H](C)O)NC(=O)[C@H](CCCCN)NC(=O)[C@@H](CCN)NC(=O)[C@H]([C@@H](C)O)NC(=O)[C@H](CCN)NC(=O)[C@H](CCCNC(=N)N)NC(=O)[C@H](CC(N)=O)NC(=O)[C@H](CCN)NC(=O)[C@H](Cc2ccc(O)cc2)NC(=O)[C@@H](NC(=O)[C@@H](NC(=O)[C@@H]2C[C@@H](O)CN2C(=O)[C@@H](NC(=N)N)C(C)C)[C@@H](C)CC)C(C)(C)SSC[C@@H](C(=O)N[C@@H](Cc2ccc(O)cc2)C(=O)O)NC1=O [Example 73, Gua-Val-Hyp-Ile-Pen-Tyr-Dab-Asn-Arg-Dab-Thr-^DDab-Lys-Thr-Ile-Cys-Tyr] ({Val(Nα-amidino)}-[Hyp]I[Pen]Y[Dab]NR[Dab]T[dDab]KTICY-OH; disulfide 3-14) | 0.5 µg/mL | 0.5 µg/mL | 0.5 µg/mL | <1% |

Now from value to compound, other results behind:

| Escherichia coli ATCC 25922 MIC [1] | Escherichia coli MCR-1 Af45 MIC [2] | Klebsiella pneumoniae SSI3010 MIC [3] | Structure (SMILES) | Hemolysis at 0.2 g/L [4] |
| --- | --- | --- | --- | --- |
| 0.25 µg/mL | 0.25 µg/mL | 0.25 µg/mL | CC[C@H](C)[C@H](NC(=O)[C@@H]1C[C@@H](O)CN1C(=O)[C@@H](NC(=N)N)C(C)C)C(=O)N[C@@H]1C(=O)N[C@@H](Cc2ccc(O)cc2)C(=O)N[C@@H](CCN)C(=O)N[C@@H](CC(N)=O)C(=O)N[C@@H](CCCNC(=N)N)C(=O)N[C@@H](CCN)C(=O)N[C@@H]([C@@H](C)O)C(=O)N[C@H](CCN)C(=O)N[C@@H](CCCCN)C(=O)N[C@@H]([C@@H](C)O)C(=O)N[C@@H](CO)C(=O)N[C@H](C(=O)N[C@@H](Cc2ccc(O)cc2)C(=O)O)CSSC1(C)C [Example 74, Gua-Val-Hyp-Ile-Pen-Tyr-Dab-Asn-Arg-Dab-Thr-^DDab-Lys-Thr-Ser-Cys-Tyr] ({Val(Nα-amidino)}-[Hyp]I[Pen]Y[Dab]NR[Dab]T[dDab]KTSCY-OH; disulfide 3-14) | <1% |
| 0.125 µg/mL | 0.0625 µg/mL | 0.125 µg/mL | CC[C@H](C)[C@H](NC(=O)[C@@H]1C[C@@H](O)CN1C(=O)[C@@H](NC(=N)N)C(C)C)C(=O)N[C@@H]1C(=O)N[C@@H](Cc2ccc(O)cc2)C(=O)N[C@@H](CO)C(=O)N[C@@H](CC(N)=O)C(=O)N[C@@H](CCCNC(=N)N)C(=O)N[C@@H](CCN)C(=O)N[C@@H]([C@@H](C)O)C(=O)N[C@H](CCN)C(=O)N[C@@H](CCCCN)C(=O)N[C@@H](CCN)C(=O)N[C@@H](CCNC(=N)N)C(=O)N[C@H](C(=O)N[C@@H](Cc2ccc(O)cc2)C(=O)O)CSSC1(C)C [Example 75, Gua-Val-Hyp-Ile-Pen-Tyr-Ser-Asn-Arg-Dab-Thr-^DDab-Lys-Dab-Agb-Cys-Tyr] ({Val(Nα-amidino)}-[Hyp]I[Pen]YSNR[Dab]T[dDab]K[Dab][Agb]CY-OH; disulfide 3-14) | <1% |
| 1 µg/mL | 0.5 µg/mL | 0.25 µg/mL | CC[C@H](NC(=N)N)C(=O)N1C[C@H](O)C[C@H]1C(=O)N[C@H](C(=O)N[C@@H]1C(=O)N[C@@H](Cc2ccc(O)cc2)C(=O)N[C@@H](CO)C(=O)N[C@@H](CC(N)=O)C(=O)N[C@@H](CCCNC(=N)N)C(=O)N[C@@H](CCN)C(=O)N[C@@H]([C@@H](C)O)C(=O)N[C@H](CCN)C(=O)N[C@@H](CCCCN)C(=O)N[C@@H](CCN)C(=O)N[C@@H](CCN)C(=O)N[C@H](C(=O)N[C@@H](Cc2ccc(O)cc2)C(=O)O)CSSC1(C)C)[C@@H](C)CC [Example 76, Gua-Abu-Hyp-Ile-Pen-Tyr-Ser-Asn-Arg-Dab-Thr-^DDab-Lys-Dab-Dab-Cys-Tyr] (X1-[Hyp]I[Pen]YSNR[Dab]T[dDab]K[Dab][Dab]CY-OH; disulfide 3-14) | <1% |
| 0.25 µg/mL | 0.5 µg/mL | 0.25 µg/mL | CC[C@H](C)[C@H](NC(=O)[C@@H]1C[C@@H](O)CN1C(=O)[C@@H](NC(=N)N)C(C)C)C(=O)N[C@@H]1C(=O)N[C@@H](Cc2ccc(O)cc2)C(=O)N[C@@H](CO)C(=O)N[C@@H](CC(N)=O)C(=O)N[C@@H](CCCNC(=N)N)C(=O)N[C@@H](CCN)C(=O)N[C@@H]([C@@H](C)O)C(=O)N[C@H](CCN)C(=O)N[C@@H](CCCCN)C(=O)N[C@@H](CCCN)C(=O)N[C@@H](CO)C(=O)N[C@H](C(=O)N[C@@H](Cc2ccc(O)cc2)C(=O)O)CSSC1(C)C [Example 77, Gua-Val-Hyp-Ile-Pen-Tyr-Ser-Asn-Arg-Dab-Thr-^DDab-Lys-Orn-Ser-Cys-Tyr] ({Val(Nα-amidino)}-[Hyp]I[Pen]YSNR[Dab]T[dDab]K[Orn]SCY-OH; disulfide 3-14) | <1% |
| 0.125 µg/mL | 0.125 µg/mL | 0.25 µg/mL | CC[C@H](C)[C@H](NC(=O)[C@@H]1C[C@@H](O)CN1C(=O)[C@@H](N)C(C)C)C(=O)N[C@H]1CCNC(=O)CC[C@@H](C(=O)N[C@@H](Cc2ccc(O)cc2)C(=O)O)NC(=O)[C@H](CCN)NC(=O)[C@H](CCN)NC(=O)[C@H](CCCCN)NC(=O)[C@@H](CCN)NC(=O)[C@H]([C@@H](C)O)NC(=O)[C@H](CCN)NC(=O)[C@H](CCCNC(=N)N)NC(=O)[C@H](CC(N)=O)NC(=O)[C@H](CO)NC(=O)[C@H](Cc2ccc(O)cc2)NC1=O [Example 78, Val-Hyp-Ile-Dab-Tyr-Ser-Asn-Arg-Dab-Thr-^DDab-Lys-Dab-Dab-Glu-Tyr] (H-V[Hyp]I[Dab]YSNR[Dab]T[dDab]K[Dab][Dab]EY-OH; lactam 4-15) | <1% |
